Here are results for 3 compounds from US20240010989A1, “MEDIUM FOR CULTURING AND EXPANDING NEPHRON PROGENITOR CELLS, METHOD FOR CULTURING AND EXPANDING NEPHRON PROGENITOR CELLS, AND METHOD FOR PRODUCING RENAL ORGANOIDS” (Kyoto University, priority 2021, published 2024).

Common to all, as to assay type: cell-based, human
Experiment [1] concerns hNPC (Bulk). Description: Expression of NPC markers SIX2 and OSR1 in subcultured hNPC (Bulk). The note with it: 3 nM in CFY medium, subculture of hNPC (Bulk). The protocol: A cell mass of the human iPS cell-derived NPC (hNPC) cultured in the test medium was transferred to a 1.5 ml tube, the supernatant was removed completely, 30 μL of Accumax (Innovative Cell Technologies, Inc.) was added, and the resultant was left to stand for 10 minutes in an incubator at 37° C. and 5% CO2. After 10 minutes, the sample was suspended in 470 μL of 10% FBS, and the cell count was measured with a TC20 (Bio-Rad Laboratories, Inc.). The human iPS cell-derived NPC were suspended in the test medium and then used to inoculate a low-attachment 96-well plate (Nunc) in an amount of 2.0×10^4 cells per well. This low-attachment 96-well plate that had been inoculated with the cells was centrifuged at 300 g for 3 minutes, and the cells were then subjected to static culture in an incubator at 37° C. and 5% CO2. Then, 48 hours after starting this static culture, an additional 100 μL of the test medium was administered to each well. Subsequently, 48 hours after this additional administration, the above operations were repeated, with the cell count being measured and a subculture conducted.
(§1) Expression of OSR1 and SIX2 was confirmed by conducting a culture test using these human iPS cells, and detecting the respective fluorescence from the GFP and tdTomato using a fluorescence microscope. […]

Experiment [2] has as its system hNPC (Bulk). Description: Production of renal organoids from subcultured hNPC (Bulk). Conditions: 3 nM in CFY medium, cells of passage 2. The protocol:
A cell mass of hNPC that had been subcultured in the test medium were placed in a Transwell (Corning), and the surrounding medium was removed. Next, the Transwell with the cell mass thereon was set in a culture dish that had been filled with 5% KSR (Kock-out Serum Replacement) (Thermo Fisher Scientific) to which 200 ng/mL of FGF2 and 5 μM of CHIR99021 had been added in advance. After 48 hours, the medium was replaced with 5% KSR containing no added growth factors or low-molecular weight compounds. Thereafter, the medium was replaced every 48 hours with fresh 5% KSR containing no added growth factors or low-molecular weight compounds, and on the 10th day after starting the differentiation culture, the cells were fixed for 3 hours at 4° C. using 4% PFA without removal from the Transwell. Following fixing, the medium was replaced with PBS, and after standing overnight at 4° C., immunostaining was conducted.
Bright field images of renal organoids were captured using either a KEYENCE BZ-X700 or a confocal microscope (Zeiss LSM710). Image analysis was performed using Image J version 1.51j8 (National Institutes of Health) (C. A. Schneider, et al., Nat Methods. 9 (2012) 671 to 675.).
Attempts were made to produce renal organoids from hNPC (Bulk) that had been subcultured using either the hNPSR medium or the CFY medium.

Experiment [3] has as its system hNPC (Bulk). Description: Cell growth (cell count, cumulative cell count) of hNPC (Bulk). The note with it: 3 nM in CFY medium (CFY+TG(3)) vs CFY+DMSO. The protocol:
The hNPC were suspended in 50 μL of a test medium in sufficient amount to achieve 2.0×10^4 cells per well, and the suspension was then used to inoculate a low-attachment 96-well plate (Nunc), and following centrifuging at 300 g for 3 minutes, the cells were subjected to a static culture in an incubator at 37° C. and 5% CO2. Six hours after starting the static culture, a cell mass had formed.
(§2) Subsequently, 48 hours after the start of the static culture, an additional 100 μL of the same medium as that used at the time of cell inoculation was administered to each well. […] After 10 minutes, the sample was suspended in 470 μL of 10% FBS, and the cell count was measured with a TC20 (Bio-Rad Laboratories, Inc.).
A cell mass of the human iPS cell-derived NPC (hNPC) cultured in the test medium was transferred to a 1.5 ml tube, the supernatant was removed completely, 30 μL of Accumax (Innovative Cell Technologies, Inc.) was added, and the resultant was left to stand for 10 minutes in an incubator at 37° C. and 5% CO2. After 10 minutes, the sample was suspended in 470 μL of 10% FBS, and the cell count was measured with a TC20 (Bio-Rad Laboratories, Inc.). […] Subsequently, 48 hours after this additional administration, the above operations were repeated, with the cell count being measured and a subculture conducted. […]

Experiment [4] relates to hNPC (c-MET(+)). Description: Cell growth (cumulative cell count) in subculture of hNPC (c-MET(+)). The note with it: 3 nM in CFY medium vs CFY+DMSO. On the procedure:
(§3) Ten μL of human-HGFR/c-MET antibody to which the fluorescent substance APC had been bound (FAB 3582A, R&D Systems Inc.) was added to 100 μL of the 2% FBS suspension of the induced hNPC cells prepared above, and the resultant was left to stand for 30 minutes on ice. After 30 minutes, the sample was centrifuged at 200 g for 5 minutes, the supernatant was removed, the residue was washed with 1 mL of PBS, and the sample was once again centrifuged at 200 g for 5 minutes and the supernatant removed. This operation was conducted twice. […]
as §2
A cell mass of the human iPS cell-derived NPC (hNPC) cultured in the test medium was transferred to a 1.5 ml tube, the supernatant was removed completely, 30 μL of Accumax (Innovative Cell Technologies, Inc.) was added, and the resultant was left to stand for 10 minutes in an incubator at 37° C. and 5% CO2. After 10 minutes, the sample was suspended in 470 μL of 10% FBS, and the cell count was measured with a TC20 (Bio-Rad Laboratories, Inc.). […]

In experiment [5] the test system is hNPC (c-MET(+)). Description: Expression of NPC markers OSR1 and SIX2 in subcultured hNPC (c-MET(+)). The note with it: 3 nM in CFY medium, subculture of hNPC (c-MET(+)). The protocol: as §3
A cell mass of the human iPS cell-derived NPC (hNPC) cultured in the test medium was transferred to a 1.5 ml tube, the supernatant was removed completely, 30 μL of Accumax (Innovative Cell Technologies, Inc.) was added, and the resultant was left to stand for 10 minutes in an incubator at 37° C. and 5% CO2. After 10 minutes, the sample was suspended in 470 μL of 10% FBS, and the cell count was measured with a TC20 (Bio-Rad Laboratories, Inc.). […] Subsequently, 48 hours after this additional administration, the above operations were repeated, with the cell count being measured and a subculture conducted.
as §1

In experiment [6] the test system is hNPC (c-MET(+)). Description: Production of renal organoids from subcultured hNPC (c-MET(+)). Conditions: 3 nM in CFY medium, cells of passage 1. The protocol:
Ten μL of human-HGFR/c-MET antibody to which the fluorescent substance APC had been bound (FAB 3582A, R&D Systems Inc.) was added to 100 μL of the 2% FBS suspension of the induced hNPC cells prepared above, and the resultant was left to stand for 30 minutes on ice. After 30 minutes, the sample was centrifuged at 200 g for 5 minutes, the supernatant was removed, the residue was washed with 1 mL of PBS, and the sample was once again centrifuged at 200 g for 5 minutes and the supernatant removed. This operation was conducted twice. The cells obtained following removal of the supernatant were suspended in DAPI that had been diluted 1,000-fold with 2% FBS, and following filtration through a 40 μm filter, flow cytometry was used to extract the c-MET-positive cells.
A cell mass of hNPC that had been subcultured in the test medium were placed in a Transwell (Corning), and the surrounding medium was removed. Next, the Transwell with the cell mass thereon was set in a culture dish that had been filled with 5% KSR (Kock-out Serum Replacement) (Thermo Fisher Scientific) to which 200 ng/mL of FGF2 and 5 μM of CHIR99021 had been added in advance. After 48 hours, the medium was replaced with 5% KSR containing no added growth factors or low-molecular weight compounds. […]

Another experiment deals with hiPSC. Description: Differentiation induction efficiency of SIX2-positive cells, hNPC from hiPSC (differentiation induction method B). The protocol:
<Method for Differentially Inducing hNPC from hiPSC (Differentiation Induction Method B)> • 1. Undifferentiated hiPSC were converted to single cells using a TrypLE Select Enzyme (Gibco), and then using a medium prepared using DMEM/F12 Glutamax (Invitrogen) supplemented with B27 as the basal medium and adding 1 μM of CHIR99021, 10 nM of retinoic acid, 1 ng/ml of BMP4, 100 ng/ml of FGF2, 10 μM of Y-27632 and iMatrix-511 (Nippi) to this basal medium, plating was conducted at a density within a range from 1.0×10^4 cells/well to 5.0×10^4 cells/well, and the cells were then incubated for 24 hours at 37° C. (production of a late posterior epiblast: step 1). • 2. On day 1, medium replacement was conducted using a medium prepared by adding 5 μM of CHIR99021, 1 ng/ml of BMP7 and 100 ng/ml of FGF2 to the same basal medium as above (production of a mesodermal-lineage primitive streak: step 2). • 3. On day 2, medium replacement was conducted using a medium prepared by adding 5 μM of CHIR99021, 1 ng/ml of BMP7, 100 ng/ml of FGF2 and 10 μM of A83-01 to the same basal medium as above (production of a mesodermal-lineage late primitive streak: step 3). • 4. On day 3, medium replacement was conducted using a medium prepared by adding 5 μM of CHIR99021, 100 ng/ml of FGF2, 1 ng/ml of BMP7, 10 ng/ml of activin A and 30 μM of Y-27632 to the same basal medium (production of a metanephric-lineage late primitive streak: step 4). • 5. On day 6, medium replacement was conducted using a medium prepared by adding 100 nM of retinoic acid, 200 ng/ml of FGF9 and 25 ng/ml of Noggin to the same basal medium (production of a late posterior intermediate mesoderm: step 5). • 6. On day 8, medium replacement was conducted using a medium prepared by adding 1 μM of CHIR99021 and 200 ng/ml FGF9 to the same basal medium (production of hNPC: step 6).

`Cc1cnc(Nc2ccc(OCCN3CCCC3)cc2)nc1Nc1cccc(S(=O)(=O)NC(C)(C)C)c1` [TG101348]: the “expression of both OSR1 and SIX2” value in the experiment with hNPC (Bulk) [1] and with hNPC (c-MET(+)) [5] was “maintained up until passage 3” each time. The renal organoid formation entry in the experiment on hNPC (Bulk) [2] and in the experiment with hNPC (c-MET(+)) [6] was “formed” throughout. Besides, the “cell growth (cell count)” value with hNPC (Bulk) [3] is reported as “promoted more”. For the same compound, the “cell growth (cumulative cell count)” value in the experiment with hNPC (c-MET(+)) [4] is given as “better promoted in all passages”.
As to “FGF2: fibroblast growth factor 2 (basic FGF)”, the “induction efficiency into hNPC” value in the experiment on hiPSC (FGF2 concentration in step 4 reduced to 10 ng/mL or less) is recorded as “decreased”. The hNPC induction efficiency result in the experiment on hiPSC (concentration of FGF2 in step 3 varied (100, 30, 10 ng/ml)) is reported as “no effect”.
heparin: the hNPC induction efficiency result in the experiment with hiPSC (0.18 U/ml (1 μg/ml) heparin added with FGF2 in step 4) and in the experiment with hiPSC (0.18 U/ml (1 μg/ml) heparin added with FGF9 in step 5) was “no effect” each time.
